Results taken from patent US6737383B1, “Herbicidal oxadiazolidines” (priority 1999, dated 2004).

Assays:
wild oat = assay: Test E wild oat; format: in vivo, Avena fatua; details: Preemergence, 0 to 100 scale where 0 is no effect and 100 is complete control
winter wheat [1] = assay: Test E winter wheat; format: in vivo, Triticum aestivum; details: Preemergence
Green foxtail [2] = assay: Test D green foxtail; format: in vivo
Outline: (§1)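 Scoring used a 0–100 visual injury scale, with 0 meaning no effect and 100 complete control, assessed 14–21 days after application alongside untreated pots. Preemergence treatments went onto sandy loam surfaces of separately potted seeds within a day of sowing.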

rape = assay: Test B pre/postemergence rape; format: in vivo, Brassica napus
Outline: (§2)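 Herbicidal effect was estimated by eye on a ten-point control scale after plants spent twelve to sixteen days in a greenhouse following soil or foliar treatment. Foliar sprays targeted plants at one to four leaves; all doses were formulated in a non-phytotoxic solvent with surfactant.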

green foxtail [3] = assay: Test E green foxtail; format: in vivo, Setaria viridis; details: Preemergence
pigweed = assay: Test B pre/postemergence pigweed; format: in vivo, Amaranthus retroflexus
Outline: as §2

winter barley = assay: Test E winter barley; format: in vivo, Hordeum vulgare; details: Preemergence
bermuda-grass = assay: Test D bermudagrass; format: in vivo, Cynodon dactylon; details: Preemergence, 0 to 100 scale
Outline: as §1

Spanishneedles = assay: Test D Spanishneedles; format: in vivo, Bidens bipinnata; details: Preemergence, 0 to 100 scale
Outline: as §1

Italian ryegrass = assay: Test E Italian ryegrass; format: in vivo, Lolium multiflorum; details: Preemergence
blackgrass = assay: Test E blackgrass; format: in vivo, Alopecurus myosuroides; details: Preemergence
itchgrass = assay: Test D itchgrass; format: in vivo, Rottboellia exaltata; details: Preemergence, 0 to 100 scale
Outline: as §1

winter wheat [4] = assay: Test E winter wheat; format: in vivo, Triticum aestivum; details: Postemergence
Outline: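 Plants were grown under normal greenhouse practice; for postemergence, in sandy loam soil mixed 60:40 with potting mix, treated at the 1- to 4-leaf stage. The compound was in a non-phytotoxic solvent carrying a surfactant. After roughly 21 to 28 days plants were scored visually against untreated plants.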

pitted morningglory = assay: Test D pitted morningglory; format: in vivo, Ipomoea lacunosa; details: Preemergence, 0 to 100 scale
Outline: as §1

sugar beet = assay: Test B pre/postemergence sugar beet; format: in vivo, Beta vulgaris; details: for Plant response rating, Sugarbeets: Rate 250 g/ha
Outline: as §2

[5] = Rate 500 g/ha, 0 to 100 scale where 0 is no effect and 100 is complete control
[6] = Rate 1000 g/ha, 0 to 100 scale where 0 is no effect and 100 is complete control
[7] = Rate 64 g/ha, Preemergence; 0 to 100 scale, 0 no injury, 100 complete control
[8] = Rate 125 g/ha, Preemergence; 0 to 100 scale, 0 no injury, 100 complete control
[9] = Postemergence, Rate 125 g/ha, scale of 0 to 10 where 0 is no effect and 10 is complete control
[10] = Preemergence, Rate 62 g/ha, scale 0 to 10 (0 no effect, 10 complete control)
[11] = Preemergence, Rate 125 g/ha, scale 0 to 10 (0 no effect, 10 complete control)
[12] = Preemergence, Rate 250 g/ha, scale of 0 to 10 where 0 is no effect and 10 is complete control
[13] = Preemergence, Rate 500 g/ha, scale 0 to 10 (0 no effect, 10 complete control)
[14] = Rate 62 g/ha, Postemergence, scale of 0 to 10 where 0 is no effect and 10 is complete control
[15] = Rate 500 g/ha, Postemergence, scale 0 to 10, 0 no effect, 10 complete control
[16] = Rate 16 g/ha, 0 no injury, 100 complete control
[17] = Rate 32 g/ha, 0 no injury, 100 complete control
[18] = Rate 64 g/ha, 0 no injury, 100 complete control
[19] = Rate 125 g/ha, 0 no injury, 100 complete control

Structure (SMILES): CC(C)N(C(=O)n1oc(=O)n(Cc2cccs2)c1=O)c1ccccc1 [Compound 103]
- Plant response rating, Wild oat (wild oat; Rate 500 g/ha): 50
- Plant response rating, Wild oat (wild oat; Rate 1000 g/ha): 70
- Plant response rating, Wheat (winter) (winter wheat [1]; Rate 250 g/ha, 0 to 100 scale): 20
- Plant response rating, Wheat (winter) (winter wheat [1]; [5]): 30
- Plant response rating, Wheat (winter) (winter wheat [1]; [6]): 30
- Plant response rating, Green foxtail (Green foxtail [2]; Preemergence; Rate 16 g/ha; 0 to 100 scale, 0 no injury, 100 complete control): 0
- Plant response rating, Green foxtail (Green foxtail [2]; Preemergence; Rate 32 g/ha; 0 to 100 scale, 0 no injury, 100 complete control): 0
- Plant response rating, Green foxtail (Green foxtail [2]; Rate 16 g/ha; Preemergence; 0 to 100 scale, 0 no injury, 100 complete control): 0
- Plant response rating, Green foxtail (Green foxtail [2]; Rate 32 g/ha; Preemergence; 0 to 100 scale, 0 no injury, 100 complete control): 85
- Green foxtail plant response rating (Green foxtail [2]; [7]): 50
- Plant response rating, Green foxtail (Green foxtail [2]; [7]): 50
- Green foxtail plant response rating (Green foxtail [2]; [8]): 100
- Plant response rating, Green foxtail (Green foxtail [2]; [8]): 100
- Plant response rating, Green foxtail (Green foxtail [2]; Rate 250 g/ha; Preemergence; 0 to 100 scale): 100
- Plant response rating, Green foxtail (Green foxtail [2]; Rate 500 g/ha, Preemergence; 0 to 100 scale): 100
- Rape plant response rating (rape; [9]): 0
- Rape plant response rating (rape; Postemergence, Rate 250 g/ha, scale 0 to 10, 0 no effect, 10 complete control): 1
- Rape plant response rating (rape; [10]): 0
- Plant response rating, Rape (rape; [11]): 0
- Plant response rating, Rape (rape; [12]): 0
- Rape plant response rating (rape; [13]): 0
- Rape plant response rating (rape; [14]): 0
- Rape plant response rating (rape; [15]): 3
- Plant response rating, Green foxtail (green foxtail [3]; Rate 250 g/ha, 0 to 100 scale): 70
- Plant response rating, Green foxtail (green foxtail [3]; [5]): 70
- Plant response rating, Green foxtail (green foxtail [3]; [6]): 100
- Redroot pigweed plant response rating (pigweed; [9]): 0
- Redroot pigweed plant response rating (pigweed; [10]): 0
- Plant response rating, Redroot pigweed (pigweed; [11]): 0
- Plant response rating, Redroot pigweed (pigweed; [12]): 6
- Redroot pigweed plant response rating (pigweed; [13]): 7
- Redroot pigweed plant response rating (pigweed; [14]): 0
- Plant response rating, Redroot pigweed (pigweed; Rate 250 g/ha, Postemergence, scale 0 to 10, 0 is no effect, 10 is complete control): 2
- Redroot pigweed plant response rating (pigweed; [15]): 4
- Plant response rating, Barley (winter) (winter barley; Rate 250 g/ha, 0 to 100 scale): 30
- Plant response rating, Barley (winter) (winter barley; [5]): 40
- Plant response rating, Barley (winter) (winter barley; [6]): 50
- Plant response rating, Bermudagrass (bermuda-grass; [16]): 30
- Plant response rating, Bermudagrass (bermuda-grass; [17]): 30
- Plant response rating, Bermudagrass (bermuda-grass; [18]): 60
- Plant response rating, Bermudagrass (bermuda-grass; [19]): 80
- Plant response rating, Bermudagrass (bermuda-grass; Rate 250 g/ha): 100
- Plant response rating, Bermudagrass (bermuda-grass; Rate 500 g/ha): 100
- Plant response rating, Spanishneedles (Spanishneedles; [16]): 0
- Plant response rating, Spanishneedles (Spanishneedles; [17]): 0
- Spanishneedles plant response rating (Spanishneedles; [18]): 0
- Spanishneedles plant response rating (Spanishneedles; [19]): 0
- Plant response rating, Spanishneedles (Spanishneedles; Rate 500 g/ha): 20
- Plant response rating, I. Ryegrass (Italian ryegrass; Rate 250 g/ha, 0 to 100 scale): 50
- Plant response rating, I. Ryegrass (Italian ryegrass; [5]): 50
- Plant response rating, I. Ryegrass (Italian ryegrass; [6]): 70
- Plant response rating, Blackgrass (blackgrass; Rate 250 g/ha, 0 to 100 scale): 30
- Plant response rating, Blackgrass (blackgrass; [5]): 50
- Plant response rating, Blackgrass (blackgrass; [6]): 70
- Plant response rating, Itchgrass (itchgrass; [16]): 0
- Plant response rating, Itchgrass (itchgrass; [17]): 0
- Plant response rating, Itchgrass (itchgrass; [18]): 0
- Plant response rating, Itchgrass (itchgrass; [19]): 0
- Plant response rating, Itchgrass (itchgrass; Rate 250 g/ha): 0
- Plant response rating, Itchgrass (itchgrass; Rate 500 g/ha): 0
- Plant response rating, Wheat (winter) (winter wheat [4]; Rate 250 g/ha, 0 to 100 scale (0 no effect, 100 complete control)): 0
- Plant response rating, Wheat (winter) (winter wheat [4]; Rate 1000 g/ha, 0 to 100 scale, 0 is no effect and 100 is complete control): 10
- Plant response rating, Wheat (winter) (winter wheat [4]; Rate 500 g/ha, 0 to 100 scale, 0 no effect, 100 complete control): 0
- Plant response rating, P. morninglory (pitted morningglory; [16]): 0
- Plant response rating, P. morninglory (pitted morningglory; [17]): 0
- Plant response rating, P. morninglory (pitted morningglory; [18]): 0
- Plant response rating, P. morninglory (pitted morningglory; [19]): 0
- Plant response rating, P. morninglory (pitted morningglory; Rate 250 g/ha): 0
- Plant response rating, P. morninglory (pitted morningglory; Rate 500 g/ha): 0
- Sugarbeets plant response rating (sugar beet; [9]): 2
- Sugarbeets plant response rating (sugar beet; [10]): 0
- Sugarbeets plant response rating (0 to 10 scale) (sugar beet; Preemergence, Rate 125 g/ha, 0 is no effect, 10 is complete control): 0
- Plant response rating, Sugarbeets (sugar beet; Preemergence, scale of 0 to 10 where 0 is no effect and 10 is complete control): 0
- Sugarbeets plant response rating (sugar beet; [13]): 4
- Sugarbeets plant response rating (sugar beet; [14]): 1
- Plant response rating, Sugarbeets (sugar beet; Postemergence, scale 0 to 10, 0 is no effect, 10 is complete control): 2
- Sugarbeets plant response rating (sugar beet; [15]): 3
